Measured values as given in patent publication US20230233533A1, “COMPOSITIONS, METHODS OF TREATING AND PREVENTING FUNGAL INFECTIONS, AND METHODS OF INHIBITING PRP8 INTEIN EXPRESSION” (Health Research, Inc., priority 2020, published 2023).
Like-named read-outs stand apart in the source and are kept apart here.

Columns and labels:
Prp8 intein [1] = target: T1, Prp8 intein (Cryptococcus gattii, UniProt E6R027); conditions: value from Li et al. 2019; read-out: IC50 determined using the RLuc-Prp8 assay; cited from earlier work
T1 sequence (E6R027 entry or part of it): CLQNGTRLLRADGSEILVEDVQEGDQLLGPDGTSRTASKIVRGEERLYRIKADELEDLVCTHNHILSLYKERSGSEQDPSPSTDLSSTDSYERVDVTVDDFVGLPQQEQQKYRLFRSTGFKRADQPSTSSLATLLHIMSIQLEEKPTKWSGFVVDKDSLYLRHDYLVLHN

trypsin = assay: Trypsin protease inhibition (Abz FRET substrate); format: biochemical; conditions: compound at 400 μM
Procedure: (§1) Trypsin and papain protease inhibition—An Abz FRET substrate (Abz-RRRRSAG-nTyr) developed previously (Li et al., “Existing Drugs as Broad-Spectrum and Potent Inhibitors for Zika Virus by Targeting NS2B-NS3 Interaction,” Cell Research 27(8):1046-1064 (2017), which is hereby incorporated by reference in its entirety) was used as the substrate for inhibition of trypsin and papain proteases. In black and clear-bottom 96-well plates, 1 μg trypsin (Sigma-Aldrich) was incubated with DMF or compounds at 400 μM at 25° C. for 30 min in a 70 μl reaction buffer containing 20 mM Tris, pH 8.0, 100 mM NaCl, 5% Glycerol, and 0.05% CHAPS. For papain, 1 μg Papain (Sigma-Aldrich) was incubated with compounds at 400 μM at 25° C. for 30 min in a 70 μl reaction buffer composed of 1.1 mM EDTA, 0.067 mM β-mercaptoethanol, 5.5 mM cysteine. […]

Prp8 intein [2] = target: T1, Prp8 intein; assay: Split GFP-Prp8i intein splicing assay; format: biochemical
papain = target: T2, papain (Carica papaya, UniProt P00784); assay: Papain protease inhibition (Abz FRET substrate); format: biochemical; conditions: compound at 400 μM
T2 construct: purchased Sigma-Aldrich
T2 sequence (P00784 134-345): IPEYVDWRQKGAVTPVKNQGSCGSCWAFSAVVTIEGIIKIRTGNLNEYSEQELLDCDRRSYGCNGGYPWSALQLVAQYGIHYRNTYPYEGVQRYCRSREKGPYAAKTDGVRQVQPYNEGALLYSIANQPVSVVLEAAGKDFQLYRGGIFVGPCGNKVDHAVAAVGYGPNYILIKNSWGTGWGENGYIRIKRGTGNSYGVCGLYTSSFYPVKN
Procedure: as §1

N.N.[Cl][Pt][Cl] [cisplatin, reference compound]
IC50 (Prp8 intein [1]): 2.5 µM | inhibition of trypsin protease activity (trypsin): neither 6G-318S, 6G-319S, nor cisplatin significantly inhibited | fluorescence increase of the GFP-Prp8i fusion (Prp8 intein [2]; cisplatin 40 μM, GFP-Prp8i 200 nM): significantly reduced | IC50 (Prp8 intein [2]; split GFP-Prp8 intein splicing): 6.7 µM | inhibition of papain protease activity (papain): neither 6G-318S, 6G-319S, nor cisplatin significantly inhibited
